This assay addresses T1, NKCC1 (Homo sapiens, UniProt P55011).
T1 construct: endogenous in cells; host or cells: native HEK293 cells
T1 sequence (P55011 1-1212): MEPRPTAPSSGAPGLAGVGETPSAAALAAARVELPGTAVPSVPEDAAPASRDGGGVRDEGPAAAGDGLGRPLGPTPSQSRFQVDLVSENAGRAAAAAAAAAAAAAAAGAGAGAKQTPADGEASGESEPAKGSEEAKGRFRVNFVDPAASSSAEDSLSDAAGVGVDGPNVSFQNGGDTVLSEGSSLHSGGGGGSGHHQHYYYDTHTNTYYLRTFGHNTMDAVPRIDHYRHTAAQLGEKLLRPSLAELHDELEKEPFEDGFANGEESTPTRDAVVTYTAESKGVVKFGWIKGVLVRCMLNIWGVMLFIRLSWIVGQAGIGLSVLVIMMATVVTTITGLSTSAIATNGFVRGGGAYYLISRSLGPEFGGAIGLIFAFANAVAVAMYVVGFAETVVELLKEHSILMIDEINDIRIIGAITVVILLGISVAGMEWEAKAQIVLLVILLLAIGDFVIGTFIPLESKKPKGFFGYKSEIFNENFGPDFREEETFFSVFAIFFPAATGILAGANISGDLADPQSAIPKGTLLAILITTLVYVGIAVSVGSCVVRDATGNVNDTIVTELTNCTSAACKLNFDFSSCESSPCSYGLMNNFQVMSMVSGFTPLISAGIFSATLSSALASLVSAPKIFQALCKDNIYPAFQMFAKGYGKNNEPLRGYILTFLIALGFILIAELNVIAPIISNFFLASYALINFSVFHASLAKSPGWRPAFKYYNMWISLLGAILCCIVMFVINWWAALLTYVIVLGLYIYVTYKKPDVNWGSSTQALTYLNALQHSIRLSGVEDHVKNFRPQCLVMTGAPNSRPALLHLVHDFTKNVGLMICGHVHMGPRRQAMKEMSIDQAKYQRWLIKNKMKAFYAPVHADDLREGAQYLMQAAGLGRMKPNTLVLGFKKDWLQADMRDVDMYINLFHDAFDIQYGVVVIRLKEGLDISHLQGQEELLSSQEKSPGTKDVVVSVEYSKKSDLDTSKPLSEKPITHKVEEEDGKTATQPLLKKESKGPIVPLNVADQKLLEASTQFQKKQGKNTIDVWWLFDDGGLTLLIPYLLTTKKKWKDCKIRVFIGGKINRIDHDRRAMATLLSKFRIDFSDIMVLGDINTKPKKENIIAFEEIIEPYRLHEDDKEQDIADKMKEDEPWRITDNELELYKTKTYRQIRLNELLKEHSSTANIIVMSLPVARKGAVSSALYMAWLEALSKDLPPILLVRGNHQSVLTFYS
The assay is described as follows: NKCC1-mediated K+ influx (83Rb tracer uptake) in native HEK293 cells, hypertonic saline, 100 μM ouabain. The format is cell-based. The note with it: HEK293, no drug = 1000, 20 μM bumetanide = 0; for inhibition at 2 µM: read-out: NKCC1 mediated flux inhibition at 2 μM (%); for inhibition at 20 µM: read-out: NKCC1 mediated flux inhibition at 20 μM (%). The text has this:
The compounds of the invention have been tested for evaluating their potency in inhibiting the NKCC1 channel. The test used is a cellular assay expressing the NKCC1 channel: HEK293 cells are human cells derived from embryonic kidney. The inhibitory activity of the compounds has been evaluated in measuring the modification of the potassium flux at 2 concentrations, as described hereafter in the biological protocol.
HEK293 cells are human cells derived from embryonic kidney. They express at their plasma membranes proteins that transport potassium (K^+). Among these proteins is the Na—K-2Cl cotransporter or NKCC1. This transporter contributes to 40-50% of K^+ influx into the cells. The remaining of K^+ transport is mediated by the Na^+/K^+-ATPase (also known as Na^+ pump or Na^+/K^+ pump), which also contributes some 40-50% of the influx basal flux of 5-10%, which is mainly due to K^+ channels (FIG. 1A). Thus, the HEK293 cell in culture is an ideal model to study the function of NKCC1 and test compounds that inhibits its transport.
The assay to measure NKCC1 function was optimized to obtain the next signal to noise ratio: • a. A slightly hypertonic saline was used to stimulate NKCC1 function. […] By consistent use of this simple manipulation, the NKCC1 signal was enhanced. • b. Ouabain, an inhibitor of the Na^+/K^+ pump, was used at 100 μM. […] A radioactive isotope was used to trace the inward movement of K^+ into the cell (influx). This allowed for highly precise measurements of K^+ influx. Because radioactive isotopes of K^+ had very short half-lives, radioactive isotopes of Rb^+ were used. Rubidium was a monovalent cation which was readily transporter at the K^+ binding site by many transporters and channels. Rb^+ was a congener of K^+, being transported undistinguishably from K^+. ^83Rb (half-life of 83 days) was used since ^86Rb (half-life of 19.6 days) is no longer commercially available. The ^83Rb isotope was used as a tracer, i.e. at a very low amounts to trace the movement of K^+.
K^+ influx measured in native HEK293 was in the range of 7000-9000 pmoles K^+ per mg protein per min. In the presence of 20 μM Ref 1, the flux was reduced to 600-900 pmoles K^+ per mg protein per min. Thus, there was a very solid dynamic range. In each experiment, the flux without Ref 1 was set at 1000 (equivalent to 100.0%) and the flux with 20 μM bumetanide was set at 0 (equivalent to 0%).
For the flux experiments, 35-mm culture dishes were coated with 0.1 mg/mL poly-L-lysine and placed in large 20×20 [square] dishes. For convenience, the poly-L-lysine was placed in the dishes the day before the experiment. Before plating the cells, the poly-L-lysine was aspirated, and each dish washed twice with 1 mL sterile water. Cells from 3 confluent 10-cm dishes were detached with trypsin and resuspended into 49 mL complete medium. Cells (2 mL/35-mm dish) were plated in 24 dishes and allowed to attach for at least 2 hours prior to the flux. This setup allowed the measurement of 8 conditions in triplicates. For the flux, culture medium was aspirated and replaced with 1 mL saline for a preincubation period of 15 min. The saline was aspirated and replaced with 1 mL identical saline containing 0.25 μCi/mL 83Rb for 15 min. Following the uptake period, the radioactive solution was aspirated, and the cells washed 3 times with ice-cold saline. Cells were then lyzed with 500 μl 0.25N NaOH for 1 hour, neutralized with 250 μL glacial acetic acid and 300 μL and 30 μL aliquots were used for μ-scintillation counting and protein assays, respectively. Two 5 μL of each flux solution was used to determine cpm and relate those cpm to nmoles K^+. Potassium influx was expressed in nmoles K^+ per mg protein per min. Note that within an experiment, groups of 3 dishes were separated 2 min apart for easy handling. Also note that since all dishes were plated with a homogeneous cell suspension, and all dishes were identical, the protein content was measured from a subset of dishes. […]

Molecules are shown by their SMILES.

With `CCCCNc1cc(C(=O)OC)cc(S(=N)(=O)N2Cc3ccccc3C2)c1Oc1ccccc1` (centres unmarked) [Compound 24, methyl 3-(butylamino)-5-(isoindolin-2-ylsulfonimidoyl)-4-phenoxy-benzoate], the inhibition at 2 µM was 10 to 30% and the inhibition at 20 µM lay within 30 to 50%. Regarding `CCCCNc1cc(C(=O)OC)cc(S(=N)(N)=O)c1Oc1ccccc1` (centres unmarked) [Compound 25, methyl 3-(aminosulfonimidoyl)-5-(butylamino)-4-phenoxy-benzoate], the inhibition at 2 µM was 30 to 50% and the inhibition at 20 µM is 30 to 50%. In the case of `CCCCNc1cc(C(=O)OC)cc(S(=N)(=O)Nc2ccccc2Cl)c1Oc1ccccc1` (centres unmarked) [Compound 26, methyl 3-(butylamino)-5-[(2-chloroanilino)sulfonimidoyl]-4-phenoxy-benzoate], the inhibition at 20 µM was 10 to 30%. Still for that read-out and setting: then `CCCCNc1cc(C(=O)OC)cc(S(=N)(=O)Nc2ccc(Cl)cc2)c1Oc1ccccc1` (centres unmarked) [Compound 27, methyl 3-(butylamino)-5-[(4-chloroanilino)sulfonimidoyl]-4-phenoxy-benzoate], with 10 to 30%; and `CCCCNc1cc(C(=O)OC)cc(S(=N)(=O)Nc2cccc(OC(F)F)c2)c1Oc1ccccc1` (centres unmarked) [Compound 28, methyl 3-(butylamino)-5-[[3-(difluoromethoxy)anilino]sulfonimidoyl]-4-phenoxy-benzoate], with 30 to 50%; and `CCCCNc1cc(C(=O)OC)cc(S(=N)(=O)NC2CCOCC2)c1Oc1ccccc1` (centres unmarked) [Compound 29, methyl 3-(butylamino)-4-phenoxy-5-[(tetrahydropyran-4-ylamino)sulfonimidoyl]benzoate], with 10 to 30%. Still for that read-out and setting: the figure for `CCCCNc1cc(C(=O)OC)cc(S(=N)(=O)NC2CCN(C)CC2)c1Oc1ccccc1` (centres unmarked) [Compound 30, methyl 3-(butylamino)-5-[[(1-methyl-4-piperidyl)amino]sulfonimidoyl]-4-phenoxy-benzoate] is 30 to 50%; for `CCCCNc1cc(C(=O)OC)cc(S(=N)(=O)Nc2ncccn2)c1Oc1ccccc1` (centres unmarked) [Compound 31, methyl 3-(butylamino)-4-phenoxy-5-[(pyrimidin-2-ylamino)sulfonimidoyl]benzoate] it is 10 to 30%. Still for that read-out and setting: then `CCCCNc1cc(C(=O)OC)cc(S(=N)(=O)NCCc2ccccc2)c1Oc1ccccc1` (centres unmarked) [Compound 34, methyl 3-(butylamino)-4-phenoxy-5-[(2-phenylethylamino)sulfonimidoyl]benzoate], with 30 to 50%; and `CCCCNc1cc(C(=O)OC)cc(S(=N)(=O)NCCc2cccc(Cl)c2)c1Oc1ccccc1` (centres unmarked) [Compound 35, methyl 3-(butylamino)-5-[[2-(3-chlorophenyl)ethylamino]sulfonimidoyl]-4-phenoxy-benzoate], with 30 to 50%.

Regarding `CCCCNc1cc(C(=O)OC)cc(S(=N)(=O)NCc2cccnc2)c1Oc1ccccc1` (centres unmarked) [Compound 36, methyl 3-(butylamino)-4-phenoxy-5-[(3-pyridylmethylamino)sulfonimidoyl]benzoate], the inhibition at 20 µM is 30 to 50%. Consider `CCCCNc1cc(C(=O)OC)cc(S(=N)(=O)NCCc2cccnc2)c1Oc1ccccc1` (centres unmarked) [Compound 37, methyl 3-(butylamino)-4-phenoxy-5-[[2-(3-pyridyl)ethylamino]sulfonimidoyl]benzoate], for which the inhibition at 20 µM is 10 to 30%. Still for that read-out and setting: then `CCCCNc1cc(C(=O)OC)cc(S(=N)(=O)NCc2nccs2)c1Oc1ccccc1` (centres unmarked) [Compound 38, methyl 3-(butylamino)-4-phenoxy-5-[(thiazol-2-ylmethylamino)sulfonimidoyl]benzoate], with 10 to 30%; and `CCCCNc1cc(C(=O)OC)cc(S(=N)(=O)NCCc2nccs2)c1Oc1ccccc1` (centres unmarked) [Compound 39, methyl 3-(butylamino)-4-phenoxy-5-[(2-thiazol-2-ylethylamino)sulfonimidoyl]benzoate], with 10 to 30%. Still for that read-out and setting: then `CCCCNc1cc(C(=O)OC)cc(S(=N)(=O)Nc2nccn2C)c1Oc1ccccc1` (centres unmarked) [Compound 40, methyl 3-(butylamino)-5-[[(1-methylimidazol-2-yl)amino]sulfonimidoyl]-4-phenoxy-benzoate], with 30 to 50%; and `CCCCNc1cc(C(=O)OC)cc(S(=N)(=O)Nc2ccccn2)c1Oc1ccccc1` (centres unmarked) [Compound 41, methyl 3-(butylamino)-4-phenoxy-5-[(2-pyridylamino)sulfonimidoyl]benzoate], with 30 to 50%. For `CCCCNc1cc(C(=O)OC)cc(S(=N)(=O)NCc2ccn(C)n2)c1Oc1ccccc1` (centres unmarked) [Compound 42, methyl 3-(butylamino)-5-[[(1-methylpyrazol-3-yl)methylamino]sulfonimidoyl]-4-phenoxy-benzoate], the inhibition at 2 µM was in the range of 10 to 30% and the inhibition at 20 µM was 10 to 30%. In the case of `CCCCNc1cc(C(=O)OC)cc(S(=N)(=O)Nc2nccs2)c1Oc1ccccc1` (centres unmarked) [Compound 43, methyl 3-(butylamino)-4-phenoxy-5-[(thiazol-2-ylamino)sulfonimidoyl]benzoate], the inhibition at 2 µM is 30 to 50% and the inhibition at 20 µM was in the range of 10 to 30%.

For the compound `CCCCNc1cc(C(=O)OC)cc(S(=N)(=O)Nc2ccncc2)c1Oc1ccccc1` (centres unmarked) [Compound 44, methyl 3-(butylamino)-4-phenoxy-5-[(4-pyridylamino)sulfonimidoyl]benzoate], the inhibition at 2 µM was in the range of 30 to 50% and the inhibition at 20 µM lay in the range of 10 to 30%. For `CCCCNc1cc(C(=O)OC)cc(S(=N)(=O)Nc2ccnnc2)c1Oc1ccccc1` (centres unmarked) [Compound 45, methyl 3-(butylamino)-4-phenoxy-5-[(pyridazin-4-ylamino)sulfonimidoyl]benzoate], in that order: 30 to 50% and 30 to 50%.

The inhibition is how much of the control response was suppressed.

The values above are taken from US20260374782A1, “NEW COMPOUNDS, PROCESSES FOR PREPARING THE SAME AND THEIR USE AS DRUGS” (B&A ONCOMEDICAL, priority 2022, published 2026).
